*1 amine or outer side, *2 acyl side, *3 side chain or, on linkers, in order; H or OH if unused. Where a SMILES comes first, the peptide text is derived from it. Bridges are numbered along the chain shown (N, C = ends). [ ]: non-standard residue; d: D form. Acbc(trans-1,3) = O=C([C@H]1C[C@H](N[*:1])C1)[*:2]; Acbc(cis-1,3) = O=C([C@H]1C[C@@H](N[*:1])C1)[*:2]; X1 = O=C([C@@H]1CCC[C@@H]1N[*:1])[*:2]
Key:
Fc-tagged human IFNGR1 = molecular target: T1, Fc-tagged human IFNGR1 (Homo sapiens, UniProt P15260); experiment: Binding kinetics and affinity to IFNGR1 by surface plasmon resonance (SPR); settings: SPR, 25 °C, 1:1 binding model; for Kd: read-out: KD; for kon: single-cycle kinetics, read-out: ka
T1 construct: purchased ACROBiosystems
T1 sequence (P15260 18-489): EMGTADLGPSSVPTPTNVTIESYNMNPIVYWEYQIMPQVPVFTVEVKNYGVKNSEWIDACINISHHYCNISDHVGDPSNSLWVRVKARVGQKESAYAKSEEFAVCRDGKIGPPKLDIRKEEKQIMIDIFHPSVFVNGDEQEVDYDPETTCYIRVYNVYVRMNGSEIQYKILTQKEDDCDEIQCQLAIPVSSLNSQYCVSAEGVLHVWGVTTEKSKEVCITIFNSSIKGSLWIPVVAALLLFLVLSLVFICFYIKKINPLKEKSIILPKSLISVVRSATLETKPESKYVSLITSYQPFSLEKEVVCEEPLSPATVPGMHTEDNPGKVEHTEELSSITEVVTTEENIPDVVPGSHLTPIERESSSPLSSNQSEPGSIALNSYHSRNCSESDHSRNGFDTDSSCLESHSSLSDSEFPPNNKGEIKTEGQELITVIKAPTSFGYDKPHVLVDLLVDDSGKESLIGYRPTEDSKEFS
Method: Binding affinities of IA1 and IA2 against IFNGR1 were evaluated by surface plasmon resonance (SPR) (Table 1 and SI Figure S6A). […] To investigate the contribution of the N-terminal [yVPβ^1RR] motif and β^1 residue in IA1, three scrambled peptides IA1s1–3 and a variant IA1β^14A were synthesized and evaluated. […] We next evaluated inhibitory activities of IA1 and IA2 against the ligand–receptor PPI between IFN-γ and IFNGR1 using AlphaLISA (Table 1 and SI Figure S7).[37] […] We also determined the serum half-lives of IA1 and IA2, considering peptidase resistance as an important factor for therapeutic peptides.[24] A sample peptide and a peptidase-resistant internal standard peptide were coincubated in human serum at 37 °C, and the relative amount of the remaining sample peptide was estimated by LC/MS. […]
Evaluation of binding affinity of peptides by surface plasmon resonance The binding affinities of selected peptides and IFNGR1 were analyzed by surface plasmon resonance (SPR) using a Biacore T200 instrument (Cytiva) at 25 °C with the following running buffer: 10 mM Tris-HCl (pH 8.0), 150 mM NaCl, 0.05% (v/v) Tween 20 , and 0.1% (v/v) DMSO. Fc-tagged IFNGR1 was immobilized on a series S sensor chip protein G (Cytiva) to a surface density of 1,200–1,600 response units following the immobilization protocols provided by Cytiva. The kinetic constants were determined by a single-cycle kinetics method by the injection of five different concentrations (twofold dilution series) of each peptide at a flow rate of 30 μL/min. The resulting sensorgrams were fitted to the standard 1:1 interaction model and analyzed using Biacore evaluation software. […]

[1] = molecular target: T2, IFN-γ/IFNGR1 protein–protein interaction (Homo sapiens, UniProt P15260); experiment: IFNGR1 inhibition assay using AlphaLISA; format: biochemical; settings: four-parameter dose–response fit, n = 3
T2 construct: purchased ACROBiosystems
T2 sequence (P15260 18-245 limits assumed): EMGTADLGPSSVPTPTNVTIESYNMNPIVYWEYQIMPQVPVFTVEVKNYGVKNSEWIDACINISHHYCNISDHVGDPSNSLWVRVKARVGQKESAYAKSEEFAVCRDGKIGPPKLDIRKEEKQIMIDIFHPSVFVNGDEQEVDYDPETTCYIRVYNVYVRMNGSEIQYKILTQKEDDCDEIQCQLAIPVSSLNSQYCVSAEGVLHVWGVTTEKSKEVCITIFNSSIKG
Method: IFNGR1 inhibition assay using AlphaLISA
The inhibitory activity of peptides against IFN-γ/IFNGR1 protein–protein interaction (PPI) was determined by AlphaLISA.5 Peptides, proteins, and beads were diluted in AlphaLISA immunoassay buffer (PerkinElmer, AL000C). 3.6 μL of 5 nM Fc-tagged IFNGR1 and 3.6 μL of synthetic peptides were mixed in AlphaPlate-384 Shallow Well (PerkinElmer) and preincubated at 25 °C for 10 min. 3.6 μL of 15 nM biotin-tagged IFN-γ was then added to the mix and incubated at 25 °C for 20 min. 3.6 μL each human IgG acceptor beads (PerkinElmer) and streptavidin donor beads (PerkinElmer) were added to the above mix and incubated at 25 °C for 30 min in dark place. Emission at 615 nm was measured […]
by EnSpire Multimode Plate Reader (PerkinElmer). The fraction of bound IFN-γ/IFNGR1 was calculated by the intensity of emission in the presence of peptide divided by that in the absence of […]
peptide. […]
Puromycin. Normocin, Blasticidin, Zeocin, and Puromycin were excluded when conducting the experiments. To evaluate the cellular activity of peptides, peptide mixtures were added to 50,000 cells/well in a flat-bottom 96-well plate and pre-incubated for 30 min at 37 °C before stimulation.
Subsequently, 1 ng/mL of recombinant IFN-γ (InvivoGen) was added to each well in a final reaction volume of 200 μL, followed by incubation for 20 h at 37 °C. 20 μL of supernatants from the induced cells was added to 180 μL Q U A N T I-Blue TM solution (InvivoGen). After further incubation for 3 h at 37 °C, the expression levels of the secreted embryonic alkaline phosphatase (SEAP) were determined by reading the O.D. at 650 nm on a Tecan M1000 PRO microplate reader (Tecan Group) and normalized to the non-treated well. IC50 value was analyzed by a normalized dose-response curve fitting by using GraphPad Prism 9.
HEK-DualTM IFN-γ cells were used for the cell viability assay. 10,000 cells/well were added to each well in a flat-bottom 96-well plate. After 24 h, peptide mixtures were added to each well in a final volume of 100 μL. After further incubation for 24 h, 10 μL CCK-8 reagent (Dojindo) was added to […]

Row | Kd (Fc-tagged human IFNGR1) [nM] | kon (Fc-tagged human IFNGR1) [M⁻¹ s⁻¹] | IC50 [1] [nM] | SMILES
1 | 87 ± 2 | 180000 | 87 ± 15 | CC(C)[C@@H]1NC(=O)[C@@H](Cc2ccc(O)cc2)NC(=O)CSC[C@H](C(N)=O)NC(=O)[C@H](CC(N)=O)NC(=O)[C@H](CO)NC(=O)[C@H](CCCNC(=N)N)NC(=O)[C@H]2C[C@H](C2)NC(=O)[C@H](Cc2c[nH]cn2)NC(=O)[C@H](CC(N)=O)NC(=O)[C@H]([C@@H](C)O)NC(=O)[C@H](Cc2c[nH]cn2)NC(=O)[C@H](CCCNC(=N)N)NC(=O)[C@H](CCCNC(=N)N)NC(=O)[C@@H]2CCC[C@@H]2NC(=O)[C@@H]2CCCN2C1=O [IA1, ^AcyVPβ^1RRHTNHγ^1RSNc-NH2] ({CH2CO}-[dY]VP[X1]RRHTNH[Acbc(cis-1,3)]RSN[dC]-NH2; thioether N-15)
2 | 11 | 650000 ± 20000 | 12 ± 3 | CC(C)[C@@H]1NC(=O)[C@@H](Cc2ccc(O)cc2)NC(=O)CSC[C@H](C(N)=O)NC(=O)[C@H](CCCNC(=N)N)NC(=O)[C@H](CO)NC(=O)[C@H](CCCNC(=N)N)NC(=O)[C@H](Cc2c[nH]cn2)NC(=O)CNC(=O)[C@H]2C[C@H](C2)NC(=O)[C@H](Cc2c[nH]cn2)NC(=O)[C@H](CC(N)=O)NC(=O)[C@H](CCCNC(=N)N)NC(=O)[C@H](CCCNC(=N)N)NC(=O)[C@@H]2CCC[C@@H]2NC(=O)[C@H](C)NC1=O [IB1, ^AcyVAβ^1RRNHγ^1GHRSRc-NH2] ({CH2CO}-[dY]VA[X1]RRNH[Acbc(cis-1,3)]GHRSR[dC]-NH2; thioether N-15)
3 | > 10000 |  | > 100000 | CC(C)[C@@H]1NC(=O)[C@@H](Cc2ccc(O)cc2)NC(=O)CSC[C@H](C(N)=O)NC(=O)[C@H](CCCNC(=N)N)NC(=O)[C@H](CO)NC(=O)[C@H](CCCNC(=N)N)NC(=O)[C@H](Cc2c[nH]cn2)NC(=O)CNC(=O)[C@H]2C[C@H](C2)NC(=O)[C@H](Cc2c[nH]cn2)NC(=O)[C@H](CC(N)=O)NC(=O)[C@H](CCCNC(=N)N)NC(=O)[C@H](CCCNC(=N)N)NC(=O)[C@H](C)NC(=O)[C@H](C)NC1=O [IB1β^14A, ^AcyVAA RRNHγ^1GHRSRc-NH2] ({CH2CO}-[dY]VAARRNH[Acbc(cis-1,3)]GHRSR[dC]-NH2; thioether N-15)
4 | 68 ± 12 | 75000 ± 25000 | 680 ± 50 | CC(C)[C@@H]1NC(=O)[C@@H](Cc2ccc(O)cc2)NC(=O)CSC[C@H](C(N)=O)NC(=O)[C@H](C)NC(=O)[C@H](Cc2c[nH]cn2)NC(=O)[C@H](CCCNC(=N)N)NC(=O)[C@H](CCCNC(=N)N)NC(=O)CNC(=O)[C@H]2C[C@@H](C2)NC(=O)[C@H](Cc2c[nH]cn2)NC(=O)[C@H](CC(N)=O)NC(=O)[C@H](CCCNC(=N)N)NC(=O)[C@H](CCCNC(=N)N)NC(=O)[C@@H]2CCC[C@@H]2NC(=O)[C@H](C)NC1=O [IB2γ^19γ^2, ^AcyVAβ^1RRNHγ^2GRRHAc-NH2] ({CH2CO}-[dY]VA[X1]RRNH[Acbc(trans-1,3)]GRRHA[dC]-NH2; thioether N-15)
5 | 9.5 ± 0.7 | 930000 ± 420000 | 12 | CC(C)[C@@H]1NC(=O)[C@@H](Cc2ccc(O)cc2)NC(=O)CSC[C@H](C(N)=O)NC(=O)[C@H](C)NC(=O)[C@H](CO)NC(=O)[C@H](CCCNC(=N)N)NC(=O)[C@H](CCCNC(=N)N)NC(=O)CNC(=O)[C@H]2C[C@H](C2)NC(=O)[C@H](Cc2c[nH]cn2)NC(=O)[C@H](CC(N)=O)NC(=O)[C@H](CCCNC(=N)N)NC(=O)[C@H](CCCNC(=N)N)NC(=O)[C@@H]2CCC[C@@H]2NC(=O)[C@H](C)NC1=O [IB3, ^AcyVAβ^1RRNHγ^1GRRSAc-NH2] ({CH2CO}-[dY]VA[X1]RRNH[Acbc(cis-1,3)]GRRSA[dC]-NH2; thioether N-15)
6 | 49 ± 7 | 470000 ± 320000 | 350 ± 30 | CC(C)[C@@H]1NC(=O)[C@@H](Cc2ccc(O)cc2)NC(=O)CSC[C@H](C(N)=O)NC(=O)[C@H](C)NC(=O)[C@H](CO)NC(=O)[C@H](CCCNC(=N)N)NC(=O)[C@H](CCCNC(=N)N)NC(=O)CNC(=O)[C@H]2C[C@@H](C2)NC(=O)[C@H](Cc2c[nH]cn2)NC(=O)[C@H](CC(N)=O)NC(=O)[C@H](CCCNC(=N)N)NC(=O)[C@H](CCCNC(=N)N)NC(=O)[C@@H]2CCC[C@@H]2NC(=O)[C@H](C)NC1=O [IB3γ^19γ^2, ^AcyVAβ^1RRNHγ^2GRRSAc-NH2] ({CH2CO}-[dY]VA[X1]RRNH[Acbc(trans-1,3)]GRRSA[dC]-NH2; thioether N-15)
7 | 130 ± 20 | 17000 ± 5000 | 220 ± 10 | CC(C)[C@@H]1NC(=O)[C@@H](Cc2ccc(O)cc2)NC(=O)CSC[C@H](C(N)=O)NC(=O)[C@H](CC(N)=O)NC(=O)[C@H](Cc2c[nH]cn2)NC(=O)[C@H](CCCNC(=N)N)NC(=O)[C@H]2C[C@@H](C2)NC(=O)[C@H]([C@@H](C)O)NC(=O)[C@H](Cc2c[nH]cn2)NC(=O)[C@@H]2CCCN2C(=O)[C@H](CO)NC(=O)[C@H](CCCNC(=N)N)NC(=O)[C@H](CCCNC(=N)N)NC(=O)[C@@H]2CCC[C@@H]2NC(=O)[C@@H]2CCCN2C1=O [IB5, ^AcyVPβ^1RRSPHTγ^2RHNc-NH2] ({CH2CO}-[dY]VP[X1]RRSPHT[Acbc(trans-1,3)]RHN[dC]-NH2; thioether N-15)
